From patent US8921267B2, “Safening 6-(trisubstituted phenyl)-4-amino-2-pyridinecarboxylate herbicide injury on cereal crops” (Dow AgroSciences LLC, priority 2008, dated 2014)

How the values were obtained:
[1] = test system: wild pansy (Viola tricolor L; VIOTR); assay: Postemergence herbicidal activity, greenhouse, visual injury: wild pansy; assay type: in vivo; set-up: key: visual injury, 0–100%: 0 = no injury, 100 = complete kill
In short: (§1)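 Injury was rated visually on a 0 (none) to 100% (complete kill) scale 20-22 d after treatment, relative to solvent-blank plants. Treatments were two-way safener/herbicide combinations in 1.5% v/v crop oil concentrate, applied overhead at 187 L/ha to plants at the 2nd–3rd true leaf stage. Colby's equation gave expected mixture effects.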

[2] = test system: wheat (Triticum aestivum L; TRZAS); assay: Postemergence herbicidal safening, greenhouse, visual injury: wheat; assay type: in vivo
In short: (§2)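 Greenhouse, 18/17 °C, 14 h light; seedlings at 2–3 leaves; Compound 1 salts/ester ± safener in Agri-dex 1.5%, 187 L/ha overhead spray; sub-irrigation; visual % injury at 20-22 d; synergy via Colby.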

[3] = test system: scented mayweed (Matricaria chamomila L; MATCH); assay: Postemergence herbicidal activity, greenhouse, visual injury: scented mayweed; assay type: in vivo; set-up: key: % visual injury: 0 = no injury, 100 = complete kill; settings: for MATCH Ob: applied alone
Protocol: (§3) Evaluation of Postemergence Herbicidal Safening in Cereal Crops
(§4) Seeds of the desired test plant species were planted in Sun Gro MetroMix® 306 planting mixture, which typically has a pH of 6.0 to 6.8 and an organic matter content of about 30 percent, in plastic pots with a surface area of 103.2 square centimeters (cm^2). When required to ensure good germination and healthy plants, a fungicide treatment and/or other chemical or physical treatment was applied. The plants were grown for 7-36 days (d) in a greenhouse with an approximate 14-hour (h) photoperiod which was maintained at about 18° C. during the day and 17° C. during the night. Nutrients and water were added on a regular basis and supplemental lighting was provided with overhead metal halide 1000-Watt lamps as necessary. The plants were employed for testing when they reached the second or third true leaf stage.
(§5) Weighed amounts of esters (methyl) or salts (TEA [triethylammonium], K [potassium]) of 4-amino-3-chloro-6-(4-chloro-2-fluoro-3-methoxyphenyl)pyridine-2-carboxylic acid (Compound 1) were dissolved in a volume of 97:3 volume/volume (v/v) acetone/dimethylsulfoxide (DMSO) to obtain stock solutions. […] The concentrated stock solutions were diluted with an aqueous mixture of 1.5% v/v of Agri-dex crop oil concentrate to provide the appropriate application rates. Compound requirements are based upon a 12 mL application volume at a rate of 187 liters per hectare (L/ha). Stocks solutions of the safeners were prepared following the same procedure. Spray solutions of the safeners and experimental compound mixtures were prepared by adding the stock solutions to the appropriate amount of dilution solution to form a 12 mL spray solution with active ingredients in two-way combinations. Formulated compounds were applied to the plant material with an overhead Mandel track sprayer equipped with 8002E nozzles calibrated to deliver 187 L/ha over an application area of 0.503 square meters (m^2) at a spray height of 18 inches (43 centimeters (cm)) above average plant canopy. Control plants were sprayed in the same manner with the solvent blank.
(§6) The treated plants and control plants were placed in a greenhouse as described above and watered by sub-irrigation to prevent wash-off of the test compounds. After 20-22 d, the condition of the test plants as compared with that of the control plants was determined visually and scored on a scale of 0 to 100 percent where 0 corresponds to no injury and 100 corresponds to complete kill.
(§7) Colby's equation was used to determine the herbicidal effects expected from the mixtures (Colby, S. R. Calculation of the synergistic and antagonistic response of herbicide combinations. Weeds 1967, 15, 20-22.).
(§8) The following equation was used to calculate the expected activity of mixtures containing two active ingredients, A and B: Expected=A+B−(A×B/100)
(§9) A=observed efficacy of active ingredient A at the same concentration as used in the mixture.
(§10) B=observed efficacy of active ingredient B at the same concentration as used in the mixture.

[4] = test system: barley (Hordeum vulgare L; HORVS); assay: Postemergence herbicidal safening, greenhouse, visual injury: barley; assay type: in vivo
In short: as §2

[5] = test system: kochia (Kochia scoparia L; KCHSC); assay: Postemergence herbicidal activity, greenhouse, visual injury: kochia; assay type: in vivo; set-up: key: % visual injury: 0 = no injury, 100 = complete kill; settings: applied alone
Protocol: as §3, §4, §5, §6, §7, §8, §9, §10

[6] = test system: corn poppy (Papaver rhoeas L; PAPRH); assay: Postemergence herbicidal activity, greenhouse, visual injury: corn poppy; assay type: in vivo
In short: as §1

[7] = test system: cleavers (Galium aparine L; GALAP); assay: Postemergence herbicidal activity, greenhouse, visual injury: cleavers; assay type: in vivo; set-up: key: visual injury, 0–100%: 0 = no injury, 100 = complete kill
In short: as §2

[8] = test system: purple deadnettle (Lamium purpureum L; LAMPU); assay: Postemergence herbicidal activity, greenhouse, visual injury: purple deadnettle; assay type: in vivo; set-up: key: visual injury, 0–100%: 0 = no injury, 100 = complete kill; settings: for LAMPU Ob: applied alone
In short: as §1

[9] = test system: wild buckwheat (Polygonum convolvulus L; POLCO); assay: Postemergence herbicidal activity, greenhouse, visual injury: wild buckwheat; assay type: in vivo
In short: as §2

[10] = test system: Russian thistle (Salsola iberica L; SASKR); assay: Postemergence herbicidal activity, greenhouse, visual injury: Russian thistle; assay type: in vivo; set-up: key: visual injury, 0–100%: 0 = no injury, 100 = complete kill
In short: as §2

[11] = test system: bird's-eye speedwell (Veronica persica L; VERPE); assay: Postemergence herbicidal activity, greenhouse, visual injury: bird's-eye speedwell; assay type: in vivo; set-up: key: visual injury, 0–100%: 0 = no injury, 100 = complete kill
In short: as §2

[12] = test system: chickweed (Stellaria media L; STEME); assay: Postemergence herbicidal activity, greenhouse, visual injury: chickweed; assay type: in vivo; set-up: key: visual injury, 0–100%: 0 = no injury, 100 = complete kill
In short: as §2

[13] = test system: durum wheat (Triticum durum L; TRZDU); assay: Postemergence herbicidal safening, greenhouse, visual injury: durum wheat; assay type: in vivo
Protocol: as §3, §4, §5, §6, §7, §8, §9, §10

[14] = test system: wheat (Triticum aestivum L; TRZAW); assay: Postemergence herbicidal safening, greenhouse, visual injury: wheat (TRZAW); assay type: in vivo
Protocol: as §3, §4, §5, §6, §7, §8, §9, §10

barley (HORVW) = assay: Postemergence herbicidal safening, greenhouse, visual injury: barley (HORVW)
[15] = Compound 1 K salt 8.75 g/ha alone
[16] = Compound 1 K salt 17.5 g/ha alone
[17] = Compound 1 K salt 35 g/ha alone

COc1c(Cl)ccc(-c2cc(N)c(Cl)c(C(=O)[O-])n2)c1F.[K+] [1 K salt]
5: TRZAS Ob (Observed values) [2, 15]
48: VIOTR Ob (Observed values) [1, 16]
57: MATCH Ob (Observed values) [3, 17]
50: MATCH Ob (Observed values) [3, 15]
20: VIOTR Ob (Observed values) [1, 15]
6.7: HORVS Ob (Observed values) [4, 17]
42: VIOTR Ob (Observed values) [1, 17]
3.3: HORVS Ob (Observed values) [4, 16]
62: MATCH Ob (Observed values) [3, 16]
8: TRZAS Ob (Observed values) [2, 16]
27: TRZAS Ob (Observed values) [2, 17]
1.7: HORVS Ob (Observed values) [4, 15]

Clc1cc(Cl)nc(-c2ccccc2)n1 [Fenclorim]
0: KCHSC Ob ([5]; 17.5 g/ha) | KCHSC Ob ([5]; 35 g/ha) | KCHSC Ob ([5]; 70 g/ha) | KCHSC Ob ([5]; 140 g/ha) | PAPRH Ob ([6]; applied alone, 17.5 g/ha) | PAPRH Ob ([6]; applied alone, 35 g/ha) | PAPRH Ob ([6]; applied alone, 70 g/ha) | PAPRH Ob ([6]; applied alone, 140 g/ha) | GALAP Ob ([7]; applied alone, 17.5 g/ha) | GALAP Ob ([7]; applied alone, 35 g/ha) | GALAP Ob ([7]; applied alone, 70 g/ha) | GALAP Ob ([7]; applied alone, 140 g/ha) | LAMPU Ob ([8]; 17.5 g/ha) | LAMPU Ob ([8]; 35 g/ha) | LAMPU Ob ([8]; 70 g/ha) | LAMPU Ob ([8]; 140 g/ha) | VIOTR Ob ([1]; applied alone, 17.5 g/ha) | VIOTR Ob ([1]; applied alone, 35 g/ha) | VIOTR Ob ([1]; applied alone, 70 g/ha) | VIOTR Ob ([1]; applied alone, 140 g/ha) | POLCO Ob ([9]; applied alone, 17.5 g/ha) | POLCO Ob ([9]; applied alone, 35 g/ha) | POLCO Ob ([9]; applied alone, 70 g/ha) | POLCO Ob ([9]; applied alone, 140 g/ha) | SASKR Ob ([10]; applied alone, 17.5 g/ha) | SASKR Ob ([10]; applied alone, 35 g/ha) | SASKR Ob ([10]; applied alone, 70 g/ha) | SASKR Ob ([10]; applied alone, 140 g/ha) | VERPE Ob ([11]; applied alone, 17.5 g/ha) | VERPE Ob ([11]; applied alone, 35 g/ha) | VERPE Ob ([11]; applied alone, 70 g/ha) | VERPE Ob ([11]; applied alone, 140 g/ha) | STEME Ob ([12]; applied alone, 17.5 g/ha) | STEME Ob ([12]; applied alone, 35 g/ha) | STEME Ob ([12]; applied alone, 70 g/ha) | STEME Ob ([12]; applied alone, 140 g/ha) | MATCH Ob ([3]; 17.5 g/ha) | MATCH Ob ([3]; 35 g/ha) | MATCH Ob ([3]; 70 g/ha) | MATCH Ob ([3]; 140 g/ha)

O=C(O)CNCP(=O)(O)O [Glyphosate]
48: TRZAS Ob (Observed values) ([2]; Glyphosate 52.5 g/ha alone)
13: HORVS Ob (Observed values) ([4]; Glyphosate 52.5 g/ha alone)
28: MATCH Ob (Observed values) ([3]; Glyphosate 52.5 g/ha alone)
52: VIOTR Ob (Observed values) ([1]; Glyphosate 52.5 g/ha alone)

CC1COc2ccccc2N1C(=O)C(Cl)Cl (racemic) [Benoxacor, (±)-4-(dichloroacetyl)-3,4-dihydro-3-methyl-2H-1,4-benzoxazine, reference compound]
0%: PAPRH Ob ([6]; applied alone at 17.5 g/ha) | PAPRH Ob ([6]; applied alone at 35 g/ha) | PAPRH Ob ([6]; applied alone at 70 g/ha) | PAPRH Ob ([6]; applied alone at 140 g/ha) | TRZDU Ob (Observed values) ([13]; safener 4.4 g/ha alone) | TRZDU Ob (Observed values) ([13]; safener 8.8 g/ha alone) | TRZDU Ob (Observed values) ([13]; safener 17.5 g/ha alone) | TRZDU Ob (Observed values) ([13]; safener 35 g/ha alone) | GALAP Ob ([7]; applied alone at 17.5 g/ha) | GALAP Ob ([7]; applied alone at 35 g/ha) | GALAP Ob ([7]; applied alone at 70 g/ha) | GALAP Ob ([7]; applied alone at 140 g/ha) | TRZAW Ob (Observed values) ([14]; safener 4.4 g/ha alone) | TRZAW Ob (Observed values) ([14]; safener 8.8 g/ha alone) | TRZAW Ob (Observed values) ([14]; safener 17.5 g/ha alone) | TRZAW Ob (Observed values) ([14]; safener 35 g/ha alone) | HORVW Ob (Observed values) (barley (HORVW); safener 4.4 g/ha alone) | HORVW Ob (Observed values) (barley (HORVW); safener 8.8 g/ha alone) | HORVW Ob (Observed values) (barley (HORVW); safener 17.5 g/ha alone) | HORVW Ob (Observed values) (barley (HORVW); safener 35 g/ha alone) | VIOTR Ob ([1]; applied alone at 17.5 g/ha) | VIOTR Ob ([1]; applied alone at 35 g/ha) | VIOTR Ob ([1]; applied alone at 70 g/ha) | VIOTR Ob ([1]; applied alone at 140 g/ha) | TRZAS Ob ([2]; applied alone at 17.5 g/ha) | TRZAS Ob ([2]; applied alone at 35 g/ha) | TRZAS Ob ([2]; applied alone at 70 g/ha) | TRZAS Ob ([2]; applied alone at 140 g/ha) | POLCO Ob ([9]; applied alone at 17.5 g/ha) | POLCO Ob ([9]; applied alone at 35 g/ha) | POLCO Ob ([9]; applied alone at 70 g/ha) | POLCO Ob ([9]; applied alone at 140 g/ha) | SASKR Ob ([10]; applied alone at 17.5 g/ha) | SASKR Ob ([10]; applied alone at 35 g/ha) | SASKR Ob ([10]; applied alone at 70 g/ha) | SASKR Ob ([10]; applied alone at 140 g/ha) | VERPE Ob ([11]; applied alone at 17.5 g/ha) | VERPE Ob ([11]; applied alone at 35 g/ha) | VERPE Ob ([11]; applied alone at 70 g/ha) | VERPE Ob ([11]; applied alone at 140 g/ha) | STEME Ob ([12]; applied alone at 17.5 g/ha) | STEME Ob ([12]; applied alone at 35 g/ha) | STEME Ob ([12]; applied alone at 70 g/ha) | STEME Ob ([12]; applied alone at 140 g/ha) | HORVS Ob ([4]; applied alone at 17.5 g/ha) | HORVS Ob ([4]; applied alone at 35 g/ha) | HORVS Ob ([4]; applied alone at 70 g/ha) | HORVS Ob ([4]; applied alone at 140 g/ha)
0: PAPRH Ob (Observed values) ([6]; safener 4.4 g/ha alone) | PAPRH Ob (Observed values) ([6]; safener 8.8 g/ha alone) | PAPRH Ob (Observed values) ([6]; safener 17.5 g/ha alone) | PAPRH Ob (Observed values) ([6]; safener 35 g/ha alone) | LAMPU Ob (Observed values) ([8]; safener 4.4 g/ha alone) | LAMPU Ob (Observed values) ([8]; safener 8.8 g/ha alone) | LAMPU Ob (Observed values) ([8]; safener 17.5 g/ha alone) | LAMPU Ob (Observed values) ([8]; safener 35 g/ha alone)
